Test results taken from PubChem BioAssay (NCI).
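Interpolation was linear, between the two tested concentrations surrounding the appropriate level; five concentrations were tested over 48 hours in 96-well plates. The concentration for full growth arrest is given as TGI.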

Tests used:
Test in all cases: growth of human tumour cells (NCI), 48 h
NCI-H522 lung = tested on: NCI-H522 lung
SK-MEL-5 melanoma = tested on: SK-MEL-5 melanoma
TK-10 renal = tested on: TK-10 renal
HL-60(TB) leukemia = tested on: HL-60(TB) leukemia
SR leukemia = tested on: SR leukemia
A498 renal = tested on: A498 renal
SF-539 CNS = tested on: SF-539 CNS
XF 498 CNS = tested on: XF 498 CNS
SK-MEL-28 melanoma = tested on: SK-MEL-28 melanoma
SW-620 colon = tested on: SW-620 colon
SK-OV-3 ovarian = tested on: SK-OV-3 ovarian
HCC-2998 colon = tested on: HCC-2998 colon
SN12C renal = tested on: SN12C renal
HOP-62 NSCLC = tested on: HOP-62 NSCLC
MOLT-4 leukemia = tested on: MOLT-4 leukemia
CAKI-1 renal = tested on: CAKI-1 renal
A549 NSCLC = tested on: A549 NSCLC
M19-MEL melanoma = tested on: M19-MEL melanoma
786-0 renal = tested on: 786-0 renal
DLD-1 colon = tested on: DLD-1 colon
NCI-H226 lung = tested on: NCI-H226 lung
HCT-15 colon = tested on: HCT-15 colon
HT29 colon = tested on: HT29 colon
RXF 393 renal = tested on: RXF 393 renal
KM20L2 colon = tested on: KM20L2 colon
HOP-18 NSCLC = tested on: HOP-18 NSCLC
SNB-78 CNS = tested on: SNB-78 CNS
OVCAR-4 ovarian = tested on: OVCAR-4 ovarian
HCT-116 colon = tested on: HCT-116 colon
LXFL 529 NSCLC = tested on: LXFL 529 NSCLC
ACHN renal = tested on: ACHN renal
SK-MEL-2 melanoma = tested on: SK-MEL-2 melanoma
OVCAR-3 ovarian = tested on: OVCAR-3 ovarian
COLO 205 colon = tested on: COLO 205 colon
LOX IMVI melanoma = tested on: LOX IMVI melanoma
SNB-75 CNS = tested on: SNB-75 CNS
SF-268 CNS = tested on: SF-268 CNS
UO-31 renal = tested on: UO-31 renal
MALME-3M melanoma = tested on: MALME-3M melanoma
K-562 leukemia = tested on: K-562 leukemia
EKVX NSCLC = tested on: EKVX NSCLC
U251 CNS = tested on: U251 CNS
OVCAR-5 ovarian = tested on: OVCAR-5 ovarian
OVCAR-8 ovarian = tested on: OVCAR-8 ovarian
UACC-62 melanoma = tested on: UACC-62 melanoma
NCI-H460 lung = tested on: NCI-H460 lung
NCI-H23 lung = tested on: NCI-H23 lung
DMS 273 small cell lung = tested on: DMS 273 small cell lung
UACC-257 melanoma = tested on: UACC-257 melanoma
HOP-92 NSCLC = tested on: HOP-92 NSCLC
RPMI-8226 leukemia = tested on: RPMI-8226 leukemia
DMS 114 small cell lung = tested on: DMS 114 small cell lung
M14 melanoma = tested on: M14 melanoma
SF-295 CNS = tested on: SF-295 CNS
IGROV1 ovarian = tested on: IGROV1 ovarian
KM12 colon = tested on: KM12 colon
CCRF-CEM leukemia = tested on: CCRF-CEM leukemia
SNB-19 CNS = tested on: SNB-19 CNS

## Oc1ccc2c3c1OC1C(=NN=C4CCC5(O)C6Cc7ccc(O)c8c7C5(CCN6CC5CC5)C4O8)CCC4(O)C(C2)N(CC2CC2)CCC314 (stereo unspecified)
NCI-H522 lung
  TGI: 57.4 µM
SK-MEL-5 melanoma
  TGI: 34.8 µM
TK-10 renal
  TGI: > 70.2 µM
HL-60(TB) leukemia
  TGI: 39.8 µM
SR leukemia
  TGI: 80.4 µM
A498 renal
  TGI: > 67.7 µM
SF-539 CNS
  TGI: > 55.5 µM
XF 498 CNS
  TGI: 34.3 µM
SK-MEL-28 melanoma
  TGI: 49.4 µM
SW-620 colon
  TGI: 41.6 µM
SK-OV-3 ovarian
  TGI: > 75.2 µM
HCC-2998 colon
  TGI: 52.7 µM
SN12C renal
  TGI: > 59.9 µM
HOP-62 NSCLC
  TGI: > 65.7 µM
MOLT-4 leukemia
  TGI: > 74 µM
CAKI-1 renal
  TGI: > 100 µM
A549 NSCLC
  TGI: 42.3 µM
M19-MEL melanoma
  TGI: 40.9 µM
786-0 renal
  TGI: 66.2 µM
DLD-1 colon
  TGI: > 100 µM
NCI-H226 lung
  TGI: > 100 µM
HCT-15 colon
  TGI: > 100 µM
HT29 colon
  TGI: 32.8 µM
RXF 393 renal
  TGI: > 100 µM
KM20L2 colon
  TGI: 41.7 µM
HOP-18 NSCLC
  TGI: > 100 µM
SNB-78 CNS
  TGI: > 100 µM
OVCAR-4 ovarian
  TGI: > 66 µM
HCT-116 colon
  TGI: 30.1 µM
LXFL 529 NSCLC
  TGI: 43.5 µM
ACHN renal
  TGI: > 100 µM
SK-MEL-2 melanoma
  TGI: 18.9 µM
OVCAR-3 ovarian
  TGI: 34.6 µM
COLO 205 colon
  TGI: 38.4 µM
LOX IMVI melanoma
  TGI: 39.1 µM
SNB-75 CNS
  TGI: > 71.8 µM
SF-268 CNS
  TGI: > 83.3 µM
UO-31 renal
  TGI: > 100 µM
MALME-3M melanoma
  TGI: 34.5 µM
K-562 leukemia
  TGI: 48.2 µM
EKVX NSCLC
  TGI: > 85.2 µM
U251 CNS
  TGI: 32.1 µM
OVCAR-5 ovarian
  TGI: > 100 µM
OVCAR-8 ovarian
  TGI: 84 µM
UACC-62 melanoma
  TGI: 41.2 µM
NCI-H460 lung
  TGI: 46.1 µM
NCI-H23 lung
  TGI: 99 µM
DMS 273 small cell lung
  TGI: 63.9 µM
UACC-257 melanoma
  TGI: 43.1 µM
HOP-92 NSCLC
  TGI: 53.4 µM
RPMI-8226 leukemia
  TGI: 88.7 µM
DMS 114 small cell lung
  TGI: 44.6 µM
M14 melanoma
  TGI: 33.4 µM
SF-295 CNS
  TGI: 32.6 µM
IGROV1 ovarian
  TGI: > 100 µM
KM12 colon
  TGI: 40.2 µM
CCRF-CEM leukemia
  TGI: > 68.1 µM
SNB-19 CNS
  TGI: > 100 µM

## Cc1ccc(NC(=O)C(=O)C2NC(=S)NC2=O)c([N+](=O)[O-])c1 (stereo unspecified)
NCI-H522 lung
  TGI: > 100 µM
SK-MEL-5 melanoma
  TGI: > 100 µM
TK-10 renal
  TGI: > 100 µM
HL-60(TB) leukemia
  TGI: > 100 µM
SR leukemia
  TGI: > 100 µM
A498 renal
  TGI: > 100 µM
SF-539 CNS
  TGI: > 100 µM
XF 498 CNS
  TGI: > 100 µM
SK-MEL-28 melanoma
  TGI: > 100 µM
SW-620 colon
  TGI: > 100 µM
SK-OV-3 ovarian
  TGI: > 100 µM
HCC-2998 colon
  TGI: > 100 µM
SN12C renal
  TGI: > 100 µM
HOP-62 NSCLC
  TGI: > 100 µM
MOLT-4 leukemia
  TGI: > 100 µM
CAKI-1 renal
  TGI: > 100 µM
A549 NSCLC
  TGI: > 100 µM
M19-MEL melanoma
  TGI: > 100 µM
786-0 renal
  TGI: > 100 µM
DLD-1 colon
  TGI: > 100 µM
NCI-H226 lung
  TGI: > 100 µM
HCT-15 colon
  TGI: > 100 µM
HT29 colon
  TGI: > 100 µM
RXF 393 renal
  TGI: > 100 µM
KM20L2 colon
  TGI: > 100 µM
HOP-18 NSCLC
  TGI: > 100 µM
SNB-78 CNS
  TGI: > 100 µM
OVCAR-4 ovarian
  TGI: > 100 µM
HCT-116 colon
  TGI: > 100 µM
LXFL 529 NSCLC
  TGI: > 100 µM
ACHN renal
  TGI: > 100 µM
SK-MEL-2 melanoma
  TGI: > 100 µM
OVCAR-3 ovarian
  TGI: > 100 µM
COLO 205 colon
  TGI: > 100 µM
LOX IMVI melanoma
  TGI: > 100 µM
SNB-75 CNS
  TGI: > 100 µM
SF-268 CNS
  TGI: > 100 µM
UO-31 renal
  TGI: > 100 µM
MALME-3M melanoma
  TGI: > 100 µM
K-562 leukemia
  TGI: > 100 µM
EKVX NSCLC
  TGI: > 100 µM
U251 CNS
  TGI: > 100 µM
OVCAR-5 ovarian
  TGI: > 100 µM
OVCAR-8 ovarian
  TGI: > 100 µM
UACC-62 melanoma
  TGI: > 100 µM
NCI-H460 lung
  TGI: > 100 µM
NCI-H23 lung
  TGI: > 100 µM
DMS 273 small cell lung
  TGI: > 100 µM
UACC-257 melanoma
  TGI: > 100 µM
HOP-92 NSCLC
  TGI: > 100 µM
RPMI-8226 leukemia
  TGI: > 100 µM
DMS 114 small cell lung
  TGI: > 100 µM
M14 melanoma
  TGI: > 100 µM
SF-295 CNS
  TGI: > 100 µM
IGROV1 ovarian
  TGI: > 100 µM
KM12 colon
  TGI: > 100 µM
CCRF-CEM leukemia
  TGI: > 100 µM
SNB-19 CNS
  TGI: > 100 µM
